Measurements as given in PMC12298351, “Novel 3,19-(N-Phenyl-3-(4-fluorophenyl)-pyrazole) Acetal of Andrographolide Promotes Cell Cycle Arrest and Apoptosis in MDA-MB-231 Breast Cancer Cells” (Pharmaceuticals, 2025).

Columns and labels:
BT-549 = assay type: cell-based; settings: BT-549, Breast
OVCAR-5 = settings: OVCAR-5, Ovarian
CAKI-1 = settings: CAKI-1, Renal
HT29 = settings: HT29, Colon
SK-OV-3 = settings: SK-OV-3, Ovarian
SK-MEL-2 = settings: SK-MEL-2, Melanoma
IGROV1 = settings: IGROV1, Ovarian
OVCAR-4 = assay type: cell-based; settings: OVCAR-4, Ovarian
HCC-2998 = settings: HCC-2998, Colon
UACC-62 = settings: UACC-62, Melanoma
NCI/ADR-RES = settings: Ovarian
OVCAR-3 = settings: OVCAR-3, Ovarian
DU-145 = settings: DU-145, Prostate
HCT-15 = settings: HCT-15, Colon
MDA-MB-468 = settings: MDA-MB-468, Breast
RXF 393 = settings: RXF 393, Renal
A498 = settings: A498, Renal
MDA-MB-435 = settings: MDA-MB-435, Melanoma
UACC-257 = settings: UACC-257, Melanoma
[1] = read-out: 50% lethal concentration (LC50), Non-Small Cell Lung
[2] = read-out: 50% lethal concentration (LC50)
[3] = read-out: 50% lethal concentration (LC50), Leukemia

C=C1CCC2C3(C)COC(c4cn(-c5ccccc5)nc4-c4ccc(Br)cc4)OC3CCC2(C)C1CC=C1C(=O)OCC1O (stereo not drawn) [1h]
Total growth inhibition (TGI) (NCI-H460; NCI-H460, Non-Small Cell Lung): 3.34 µM
GI50 (NCI-H460; NCI-H460, Non-Small-Cell Lung): 1.59 µM
CC50 (NCI-H460; read-out: 50% lethal concentration (LC50), NCI-H460, Non-Small Cell Lung): 7 µM
Total growth inhibition (TGI) (HOP-62; HOP-62, Non-Small Cell Lung): 3.83 µM
GI50 (HOP-62; HOP-62, Non-Small-Cell Lung): 1.8 µM
CC50 (HOP-62; read-out: 50% lethal concentration (LC50), HOP-62, Non-Small Cell Lung): 8.12 µM
GI50 (BT-549): 1.47 µM
Total growth inhibition (TGI) (BT-549): 3.5 µM
Total growth inhibition (TGI) (A549/ATCC; Non-Small Cell Lung): 51.6 µM
GI50 (A549/ATCC; Non-Small-Cell Lung): 3.1 µM
CC50 (A549/ATCC; [1]): > 100 µM
GI50 (OVCAR-5): 1.93 µM
Total growth inhibition (TGI) (OVCAR-5): 5.08 µM
CC50 (OVCAR-5; [2]): > 100 µM
GI50 (CAKI-1): 1.59 µM
Total growth inhibition (TGI) (CAKI-1): 3.49 µM
CC50 (CAKI-1; [2]): 7.69 µM
GI50 (HT29): 2.16 µM
Total growth inhibition (TGI) (HT29): 6.51 µM
CC50 (HT29; [2]): > 100 µM
Total growth inhibition (TGI) (NCI-H226; NCI-H226, Non-Small Cell Lung): 2.8 µM
GI50 (NCI-H226; NCI-H226, Non-Small-Cell Lung): 1.36 µM
CC50 (NCI-H226; read-out: 50% lethal concentration (LC50), NCI-H226, Non-Small Cell Lung): 5.77 µM
GI50 (SK-OV-3): 2.03 µM
Total growth inhibition (TGI) (SK-OV-3): 8.27 µM
CC50 (SK-OV-3; [2]): > 100 µM
GI50 (SK-MEL-2): 1.76 µM
Total growth inhibition (TGI) (SK-MEL-2): 3.18 µM
GI50 (LOX IMVI; Melanoma): 1.55 µM
Total growth inhibition (TGI) (LOX IMVI; Melanoma): 2.9 µM
CC50 (LOX IMVI; read-out: 50% lethal concentration (LC50), Melanoma): 5.41 µM
GI50 (IGROV1): 1.67 µM
Total growth inhibition (TGI) (IGROV1): 5.16 µM
CC50 (IGROV1; [2]): > 100 µM
GI50 (SR; Leukemia): 1.69 µM
Total growth inhibition (TGI) (SR; Leukemia): 8.13 µM
CC50 (SR; [3]): > 100 µM
GI50 (OVCAR-4): 1.89 µM
Total growth inhibition (TGI) (OVCAR-4): 4.27 µM
CC50 (OVCAR-4; [2]): > 100 µM
GI50 (HCC-2998): 1.83 µM
Total growth inhibition (TGI) (HCC-2998): 3.49 µM
GI50 (UACC-62): 1.58 µM
Total growth inhibition (TGI) (UACC-62): 3.13 µM
CC50 (UACC-62; [2]): 6.2 µM
GI50 (NCI/ADR-RES): 1.83 µM
Total growth inhibition (TGI) (NCI/ADR-RES): 4.19 µM
GI50 (OVCAR-3): 1.52 µM
Total growth inhibition (TGI) (OVCAR-3): 3.32 µM
CC50 (OVCAR-3; [2]): 7.25 µM
GI50 (DU-145): 1.77 µM
Total growth inhibition (TGI) (DU-145): 3.59 µM
CC50 (DU-145; [2]): 7.28 µM
GI50 (HCT-15): 1.6 µM
Total growth inhibition (TGI) (HCT-15): 3.3 µM
CC50 (HCT-15; [2]): 6.83 µM
GI50 (MDA-MB-468): 1.93 µM
Total growth inhibition (TGI) (MDA-MB-468): 3.47 µM
CC50 (MDA-MB-468; [2]): 6.23 µM
GI50 (RXF 393): 1.71 µM
Total growth inhibition (TGI) (RXF 393): 3.23 µM
CC50 (RXF 393; [2]): 6.11 µM
Total growth inhibition (TGI) (EKVX; Non-Small Cell Lung): 5.35 µM
GI50 (EKVX; Non-Small-Cell Lung): 2.21 µM
CC50 (EKVX; [1]): > 100 µM
Total growth inhibition (TGI) (NCI-H522; NCI-H522, Non-Small Cell Lung): 3.37 µM
GI50 (NCI-H522; NCI-H522, Non-Small-Cell Lung): 1.69 µM
CC50 (NCI-H522; read-out: 50% lethal concentration (LC50), NCI-H522, Non-Small Cell Lung): 6.68 µM
Total growth inhibition (TGI) (HOP-92; HOP-92, Non-Small Cell Lung): 2.92 µM
GI50 (HOP-92; HOP-92, Non-Small-Cell Lung): 1.38 µM
CC50 (HOP-92; read-out: 50% lethal concentration (LC50), HOP-92, Non-Small Cell Lung): 6.2 µM
GI50 (HS 578T; Breast): 1.52 µM
Total growth inhibition (TGI) (HS 578T; Breast): 3.01 µM
CC50 (HS 578T; read-out: 50% lethal concentration (LC50), Breast): 5.94 µM
GI50 (A498): 4.35 µM
Total growth inhibition (TGI) (A498): 1.66 µM
CC50 (A498; [2]): 53.6 µM
GI50 (MDA-MB-435): 1.67 µM
Total growth inhibition (TGI) (MDA-MB-435): 3.34 µM
CC50 (MDA-MB-435; [2]): 6.67 µM
GI50 (UACC-257): 1.7 µM
Total growth inhibition (TGI) (UACC-257): 3.35 µM
GI50 (CCRF-CEM; Leukemia): 0.48 µM
CC50 (CCRF-CEM; [3]): > 100 µM
Total growth inhibition (TGI) (NCI-H23; NCI-H23, Non-Small Cell Lung): 3.62 µM
GI50 (NCI-H23; NCI-H23, Non-Small-Cell Lung): 1.71 µM
CC50 (NCI-H23; read-out: 50% lethal concentration (LC50), NCI-H23, Non-Small Cell Lung): 7.67 µM
